# Patent US20240116889A1, “ANTIVIRAL COMPOUNDS AND METHODS” (priority 2019, published 2024)
# Entries after “also recorded” stand apart in the source; their conditions may differ. Where two headings read alike, the source gives them in different places.
# Experiments:
# USSR H1N1 virus [1] = format: cell-based, influenza A virus (A/USSR/77)
# USSR H1N1 virus [2] = format: cell-based, influenza A virus (A/USSR/77); remark: listed apart in the source
# USSR H1N1 virus [3] = format: cell-based, influenza A virus (A/USSR/77); remark: listed apart in the source
# USSR H1N1 virus [4] = format: cell-based, influenza A virus (A/USSR/77); settings: PTECs; 0.1 μM TG for 30 min
# pdm H1N1 virus = format: cell-based, influenza A virus (A/California/07/2009); settings: NPTr cells; 0.5 μM TG 30 min; […]
# [5] = system: RSV (A2 strain, ATCC VR-1540); experiment: RSV production from infected HEp2 cells (immuno-detection / RT-qPCR); format: cell-based, human respiratory syncytial virus
# HEp2 cells = experiment: Cell viability of HEp2 cells (CellTiter-Glo); format: cell-based, human; settings: HEp-2 cells
# Experimental: Spun supernatants were collected to infect HEp2 cells for 24 h for immuno-detection of RSV. TG doses used to prime HEp2 cells were non-toxic. 30 min TG treated cells were rinsed, cultured overnight and subjected to cell viability assays (CellTiter-Glo® Luminescent Cell Viability Assay kit, Promega. Results are shown in FIG. 22.
# DDIT3, HSPA5 and HSP90B1 = format: cell-based, pig; settings: NPTr cells, porcine myoblasts and NHBE cells; non-toxic TG, 30 min
# RIG-I, OAS1 and PKR = format: cell-based, pig; settings: NPTr cells (TG also NHBE cells and myoblasts); priming before or during infection
# [6] = system: extracellular Ca^2+ influx; experiment: Intracellular Ca2+ monitoring assay (Fluo-8) in NPTr cells; format: cell-based, pig; settings: non-toxic doses (CPA up to 5 μM; TG 10 min)
# human coronavirus OC43 = format: cell-based; settings: MRC-5 cells
# SARS-CoV-2 [7] = experiment: SARS-CoV-2 replication in Calu-3 cells (RT-qPCR of media); format: cell-based
# SARS-CoV-2 [8] = experiment: SARS-CoV-2 replication in NHBE cells (RT-qPCR of media); format: cell-based
# SARS-CoV-2 [9] = experiment: SARS-CoV-2 replication in Vero E6 cells (RT-qPCR of media); format: cell-based
# hCoV OC43 = hCoV OC43 replication in A549 cells (RT-qPCR); format: cell-based, human coronavirus OC43
# USSR H1N1 virus [10] = experiment: USSR H1N1 replication in A549 cells (M-gene RNA, RT-qPCR); format: cell-based, influenza A virus (A/USSR/77)
# A549 cells = experiment: Cell viability of A549 cells (CellTiter-Glo 2.0); format: cell-based, human; settings: RDV continuous, TG 30 min, overnight
# Experimental: (A) A549 cells were primed with indicated TG, 0.3 μM RDV or DMSO control for 30 min, washed twice with PBS and infected with 0.01 MOI of CoV OC43 for 2 h, after which cells were washed again with PBS and incubated in fresh infection media (OptiMEM supplemented with 0.1 μg/ml TPCK-trypsin for TG primed cells, or fresh media in the continuous presence of RDV. At 24, 48 and 72 hpi, viral RNA extraction was performed on collected supernatants followed by one-step reverse transcription qPCR to detect the relative copy number of hCoV OC43 replicase polyprotein lab RNA, based on relative Ct method. Indicated significance relative to corresponding RDV-treated cells based on 2-way ANOVA Tukey's multiple comparisons test. (B) As in (A), A549 cells were primed continuously with RDV, or for 30 min with indicated TG or DMSO, washed, cultured overnight and subjected to cell viability assay (CellTiter-Glo 2.0 Cell Viability Assay, Promega).
# [11] = system: 2009 pandemic (pdm) H1N1 virus; experiment: 2009 pandemic (pdm) H1N1 virus replication in Calu-3 cells (M-gene RNA, RT-qPCR); format: cell-based, influenza A virus
# USSR H1N1 virus [12] = experiment: USSR H1N1 M-gene RNA in media of NPTr cells primed with stored or oil-mixed TG (RT-qPCR); format: cell-based, influenza A virus (A/USSR/77); settings: NPTr cells primed at 0.5 μM TG
# influenza A virus = settings: MDCK cells; 0.001 μM TG over 48 h of infection; cited from earlier work
# RSV = settings: human bronchial epithelial cell line; TG 0.1 uM for 24 h before infection; cited from earlier work
# [13] = Tolerability of TG given to mice by oral gavage; settings: 1 mg/kg
# [14] = NPTr cells, 30 min priming, […]
# [15] = 30 min priming at doses used for infection studies
structure (smiles),measurement,setting,value
"C/C=C(/C)C(=O)O[C@H]1C(C)=C2[C@H]([C@@H]1OC(=O)CCCCCCC)[C@@](C)(OC(C)=O)C[C@H](OC(=O)CCC)[C@@]1(O)[C@H]2OC(=O)[C@@]1(C)O [TG, thapsigargin]",progeny virus output vs DMSO control,USSR H1N1 virus [1],marked reduction in virus output
same,progeny virus output,"USSR H1N1 virus [1]; NHBE cells, 5 nM TG for 30 min",dramatic reduction in progeny virus output
same,"virus production, TG before vs 6 h after infection","USSR H1N1 virus [1]; NHBE cells, 0.01 μM TG 30 min, […]",comparable reduction in virus production
same,Selectivity index (CC50/IC50),"USSR H1N1 virus [1]; NHBE cells, 30 min priming, […]",8572.89
same,IC50,"USSR H1N1 virus [1]; NHBE cells, 30 min priming, […], read-out: USSR virus inhibitory concentration IC50",3.91 nM
same,progeny virus output vs DMSO control,USSR H1N1 virus [2],marked reduction in virus output
same,virus reduction,USSR H1N1 virus [2]; NPTr cells pre-primed with 0.1 μM TG for 30 min,82%
same,virus reduction,USSR H1N1 virus [2]; NPTr cells pre-primed with 0.5 μM TG for 30 min,93%
same,duration of the antiviral state after TG exposure,"USSR H1N1 virus [2]; NPTr cells, 0.5 μM TG for 30 min",at least 24 h
same,IC50,USSR H1N1 virus [2]; [14],7.12 nM
same,Selectivity index (CC50/IC50),USSR H1N1 virus [2]; [14],7952.21
same,progeny virus output vs DMSO control,USSR H1N1 virus [3],marked reduction in virus output
same,"virus production, TG before vs 6 h after infection","USSR H1N1 virus [3]; myoblasts, 0.5 μM TG 30 min, […]",comparable reduction in virus production
same,duration of the antiviral state after TG exposure,"USSR H1N1 virus [3]; myoblasts, 1.0 μM TG for 1 h",at least 24 h
same,duration of the antiviral state after TG exposure,USSR H1N1 virus [4],at least 24 h
same,"virus production, TG before vs 6 h after infection",pdm H1N1 virus,comparable reduction in virus production
same,"RSV replication, priming 24 h before or 24 h post-infection","[5]; HEp2 cells, 30 min TG priming, 72 h infection",strongly inhibited RSV replication
same,"RSV production, TG priming 48 h post-infection","[5]; HEp2 cells, 30 min priming",rapidly effective in blocking virus production at 48 h post-infection
same,duration of sustained anti-viral effect on RSV,"[5]; HEp2 cells, 30 min priming",over 48 h
same,Selectivity index,"[5]; HEp-2 cells, 3 d infection period",1346.499
same,IC50,"[5]; HEp-2 cells, RSV, 3 d infection period",66.8 nM
same,"RSV progeny virus production, viral M-gene RNA","[5]; HEp-2 cells, TG 30 min priming, Riba continuously present, four days post-infection",superior to the continuous presence of ribavirin; also recorded: significantly inhibited
same,CC50,HEp2 cells,90 µM
same,expression of ER stress associated genes,"DDIT3, HSPA5 and HSP90B1",consistently elevated ER stress associated genes
same,expression of type I IFN associated genes in response to infection,"RIG-I, OAS1 and PKR",consistently increased the expression of type I IFN associated genes
same,extracellular Ca^2+ influx,[6],modest Ca^2+ influx
same,hCoV OC43 replication / progeny production,"human coronavirus OC43; TG 0.05 or 0.5 μM 30 min pre-infection, HC pre-infection or continuous",dramatic dose-responsive reduction in coronavirus replication
same,cell loss and cytopathic effects of infected cells,human coronavirus OC43; TG-primed,limited cell loss and little morphological change
same,"SARS-CoV-2, separate infection and co-infection with pdm 2009 H1N1",SARS-CoV-2 [7],blocked
same,"SARS-CoV-2 replication, post-infection priming",SARS-CoV-2 [7],just as effective in virus inhibition as pre-infection TG priming
same,SARS-CoV-2 replication,"SARS-CoV-2 [7]; Calu-3 cells, […], HC primed and continuously present",highly inhibitory
same,SARS-CoV-2 replication,SARS-CoV-2 [8],highly inhibitory
same,SARS-CoV-2 replication,SARS-CoV-2 [9],lack of effectiveness
same,"hCoV OC43, separate infection and co-infection with USSR H1N1",hCoV OC43,blocked
same,"blocking of hCoV OC43 replication, comparison with RDV","hCoV OC43; A549 cells, TG 30 min priming vs continuous RDV, […]",superior to remdesivir (RDV)
same,"USSR H1N1, separate infection and co-infection with hCoV OC43",USSR H1N1 virus [10],blocked
same,"blocking of USSR H1N1 replication, comparison with RDV","USSR H1N1 virus [10]; A549 cells, TG 30 min priming vs continuous RDV",superior to remdesivir (RDV)
same,cell viability,A549 cells,no adverse effect on cell viability
same,"pdm 2009 H1N1, separate infection and co-infection with SARS-CoV-2",[11],blocked
same,antiviral function after mixing TG-DMSO stock with olive oil or sesame oil,"USSR H1N1 virus [12]; 1:1 volume ratio, 24 h at room temperature",did not diminish TG antiviral function
same,antiviral activity after incubation of TG stock solution on its own,"USSR H1N1 virus [12]; 24 h at RT, relative to freshly thawed TG",some reduction in antiviral activity
same,cell viability after priming,NHBE cells; [15],no cytotoxic effect on cell viability
same,cell viability on continuous exposure,NHBE cells; continuous 5 nM TG for 24 h,no reduction in cell viability
same,CC50,"NHBE cells; read-out: cellular cytotoxicity CC50, 30 min priming, viability after 24 h",33.5 µM
same,cell viability after priming,NPTr cells; [15],no cytotoxic effect on cell viability
same,CC50,"NPTr cells; 30 min priming, viability after 24 h",56.6 µM
same,"cell viability of primed cells, infected or uninfected","NPTr cells; primed once with 0.5 μM TG for 30 min, over 20 h",more viable than DMSO control cells
same,progeny influenza virus output,influenza A virus,increase progeny influenza virus output
same,RSV replication by RT-PCR,RSV,did not show reduction in virus replication
same,clinical adverse effects,[13],no detectable clinical adverse effects
